# According to paper doi:10.1101/2024.08.25.609621 (bioRxiv, 2024):
# Read-outs that look alike come from different tables or passages of the source.
# Biological target: SARS-CoV-2 NSP3 macrodomain (Mac1), P43 crystal form (Severe acute respiratory syndrome coronavirus 2, UniProt P0DTD1)
# Format: binding
# Conditions: for 1-BDC: PanDDA background density correction; for Total number of conformations: ligand conformations modeled in Mac1 crystal structure; for 2*(1-BDC) (%): occupancy estimate from PanDDA 1-BDC
# [1] = crystal soak, soak concentration 10 mM
# [2] = crystal soak, soak concentration 10 mM, TRUE = ligand hit
# [3] = X-ray crystal structure determined (TRUE)
# [4] = crystal soak 10 mM, P43 crystals
# [5] = site of ligand in X-ray crystal structure
# [6] = crystal soak 10 mM, TFA/DMSO background map
SMILES,1-BDC,"Pandda run, overall: Modeled [1]","Pandda run, overall: Hit [2]",X-ray crystal structure (crystal structure with Mac1 determined (TRUE)),Total number of conformations,2*(1-BDC) (%),Binding site (site of ligand in Mac1 crystal structure),"PanDDA run, DMSO background map: 1-BDC (soak concentration 10 mM)","PanDDA run, DMSO background map: Hit (soak concentration 10 mM)","Pandda run, overall: Modeling comment [1]",X-ray crystal structure [3],"Pandda run, overall: Hit [4]","Pandda run, overall: Modeled [4]","PanDDA run, DMSO background map: 1-BDC (crystal soak 10 mM)","PanDDA run, DMSO background map: Hit (crystal soak 10 mM)",Binding site [5],"Pandda run, overall: Modeling comment [4]","PanDDA run, TFA/DMSO background map: 1-BDC [6]","PanDDA run, TFA/DMSO background map: Hit [6]"
O[C@@H]1CN(c2ncnc3[nH]ccc23)C[C@H]1F [AVI-616],0.2,TRUE,TRUE,TRUE,1,40,Adenosine,0.2,TRUE,,,,,,,,,,
O=C(O)C(F)(F)F.OC1c2ccccc2CC1Nc1ncnc2[nH]ccc12 (stereo not shown) [AVI-3634],,,,,,,,,,TFA only,,,,,,,,,
CCC(Nc1ncnc2[nH]ccc12)C(C)O (stereo not shown) [AVI-3635],0.14,,TRUE,,2,28,,0.23,TRUE,,TRUE,TRUE,TRUE,0.14,TRUE,Adenosine,,,
OCC(CC(F)(F)F)Nc1ncnc2[nH]ccc12 (stereo not shown) [AVI-3637],0.23,TRUE,TRUE,,1,46,,0.23,TRUE,,TRUE,,,,,Adenosine,,,
OCC(Nc1ncnc2[nH]ccc12)C1CCC1 (stereo not shown) [AVI-3638],0.13,,,,1,26,,,,,TRUE,TRUE,TRUE,0.13,TRUE,Adenosine,,,
O=C(O)C(F)(F)F.O[C@H]1CCC[C@@H]1Nc1ncnc2[nH]ccc12 [AVI-3639],0.11,,,,1,22,,,,,TRUE,TRUE,TRUE,0.11,TRUE,Adenosine,,,
OCC(CC1CCC1)Nc1ncnc2[nH]ccc12 (stereo not shown) [AVI-3641],0.18,,,,1,36,,,,,TRUE,TRUE,TRUE,0.18,TRUE,Adenosine,,,
OCC(CC(O)c1ccccc1)Nc1ncnc2[nH]ccc12 (stereo not shown) [AVI-3642],0.17,,,,1,34,,,,,TRUE,TRUE,TRUE,0.17,TRUE,Adenosine,,,
CCC(CO)Nc1ncnc2[nH]ccc12 (stereo not shown) [AVI-3643],0.16,,,,1,32,,,,,TRUE,TRUE,TRUE,0.16,TRUE,Adenosine,,,
C#CCC(CO)Nc1ncnc2[nH]ccc12 (stereo not shown) [AVI-3644],0.18,,,,1,36,,,,,TRUE,TRUE,TRUE,0.18,TRUE,Adenosine,,,
O=C(O)C(F)(F)F.OCC(Nc1ncnc2[nH]ccc12)C1CCCO1 (stereo not shown) [AVI-3645],,,,,,,,,,,,TRUE,,0.22,TRUE,,"Weak density, not modeled",0.12,TRUE
